Results as given in the Biogen ADME set (Fang et al. 2023).
Converted amounts (≈) assume the structure as drawn.

Details: for aqueous solubility: pH 6.8

Row | Structure (SMILES) | MDR1-MDCK efflux ratio | intrinsic clearance, human liver microsomes [mL/min/kg] | intrinsic clearance, rat liver microsomes [mL/min/kg] | aqueous solubility [µg/mL] | fraction unbound, human plasma | fraction unbound, rat plasma
1 | Nc1cncc(-c2ccc(CN3CCCCC3)cc2)c1 | 0.743 | 40.7 | 56.3 | 26 (≈ 97.1 µM) |  | 
2 | O=C(C1CCCN(Cc2cc3c(cc2O)OCO3)C1)N1CCOCC1 (stereo not drawn) | 1.94 | 5.4 | 52.6 | 55.8 (≈ 160 µM) |  | 
3 | Cc1cc(CCCC(=O)NC[C@H]2CC[C@H](c3ccc(C(N)=O)c(C)n3)CC2)ccc1F | 33.3 | 214 | 808 | 3.18 (≈ 7.47 µM) |  | 
4 | CCc1cc(CNC(=O)NC2CCN(CC3CCCCC3)CC2)on1 | 26.6 | ≤ 4.74 | 80.4 |  |  | 
5 | CN(CC(=O)N(C)C)Cc1cc(C#N)ccc1F | 0.713 | ≤ 4.74 | 38.1 | 35.4 (≈ 142 µM) |  | 
6 | NC(=O)c1sc2cc(F)ccc2c1Cl |  |  |  | 0.5 (≈ 2.18 µM) |  | 
7 | CNC(=O)Cc1cccc(OCCN2CCCCC2)c1 | 11.8 | ≤ 4.74 | 57.3 |  |  | 
8 | CSc1cccc(-c2ccccc2-c2nnc(C)o2)c1 | 0.652 | 145 | 2460 | 41.5 (≈ 147 µM) |  | 
9 | CNC(=O)c1ccc(/C=C/c2nc3cc(Cl)ccc3o2)cc1 | 0.598 |  |  | 0.76 (≈ 2.43 µM) |  | 
10 | Cc1nccc(NC(=O)c2ccc(Cl)nc2Cl)n1 | 0.548 | 5.24 | 15.2 |  |  | 
11 | Cc1cc(NC(=O)c2cccs2)no1 | 0.617 | 39.6 | 793 | 31.6 (≈ 152 µM) |  | 
12 | CCOc1ccccc1CNCCc1c[nH]c2ccccc12 | 3.34 | 127 | 2170 | 39.6 (≈ 135 µM) |  | 
13 | Cc1ccc(-c2nc(CN3CCOCC3)n(Cc3ccc(F)cc3)n2)o1 | 4.11 | 98.3 | 1400 | 28.9 (≈ 81.2 µM) |  | 
14 | CN(Cc1nc(N)c2ccccc2n1)Cc1ccc(F)cc1F | 3.49 | 54 | 1970 | 43.1 (≈ 137 µM) |  | 
15 | Cc1cc(C(=O)NCCc2ccccn2)c(C)s1 | 0.639 | 63.1 | 232 | 41.1 (≈ 158 µM) |  | 
16 | Cc1cccnc1CNC(=O)c1ccc(Cl)s1 |  | 39.6 | 399 |  |  | 
17 | Cc1cccc(OC2CCN(CC(N)=O)CC2)c1 | 0.636 | ≤ 4.74 | 67.2 | 79 (≈ 318 µM) |  | 
18 | O=C(CSc1ccc(F)cc1)N1CCCC1 | 0.746 | 9.35 | 117 | 36.2 (≈ 151 µM) |  | 
19 | COc1ccc(CNC(=O)c2sc3nc(C)cc(C)c3c2N)cc1 | 0.386 | 44.1 | 558 |  | 0.0044 | 0.00657
20 | COCCOCc1ccc(-c2cc3onc(-c4ccccc4)c3c(=O)n2C)cc1 | 0.466 | 13.7 | 135 | 14.2 (≈ 36.5 µM) |  | 
21 | O=C(CSCCc1ccncc1)Nc1ccccc1 | 0.805 | 19.6 | 429 |  |  | 
22 | O=C(CCn1cc(Br)cn1)Nc1nc2ccccc2n1CCN1CCOCC1 |  |  |  | 42.3 (≈ 94.6 µM) |  | 
23 | Cc1cc(C(=O)O)nn1-c1ccccn1 |  | ≤ 4.74 | ≤ 10.7 |  |  | 
24 | Cc1ccc(C)c(NC(=O)CN2CCCN(c3ccc(C(F)(F)F)cn3)CC2)c1 | 0.959 | 447 | 1940 | 11.9 (≈ 29.4 µM) |  | 
25 | Cc1c(F)cccc1NC(=O)CN1[C@H](Cc2ccccc2)C[C@]2(C)NC(=O)CCC[C@H]12 | 12.4 | 267 | 1090 |  | 0.0394 | 0.0842
26 | O=C(c1cc(-c2cccc(Cl)c2)on1)N1CCC(n2cccc2)CC1 | 0.698 | 15.4 | 274 | 10.5 (≈ 29.4 µM) |  | 
27 | CCOc1ccc2nc3c(cc2c1)CN(CCOC)C(=O)O3 |  | 12 | 215 |  |  | 

Second part, the compound after the results:

Row | MDR1-MDCK efflux ratio | intrinsic clearance, human liver microsomes [mL/min/kg] | intrinsic clearance, rat liver microsomes [mL/min/kg] | aqueous solubility [µg/mL] | fraction unbound, human plasma | fraction unbound, rat plasma | Structure (SMILES)
28 | 2.5 | 22.8 | 474 | 2.15 (≈ 4.48 µM) |  |  | O=C(/C=C/c1ccc(Cl)cc1)N1CCC2(CC1)CN(Cc1ccc(Cl)c(Cl)c1)C(=O)O2
29 | 1.01 | 39.6 | 1140 | 20.5 (≈ 76.4 µM) |  |  | CN(Cc1n[nH]c2c1CCCC2)c1nccnc1C#N
30 |  |  |  | 3.71 (≈ 12.6 µM) |  |  | COCc1cccc(NC(=O)c2cn(C)c3ccccc23)c1
31 | 1.18 | ≤ 4.74 | 56.3 |  |  |  | O=C(NCCN1CCc2ccccc2C1=O)c1ccon1
32 |  | ≤ 4.74 | 20.4 |  |  |  | Cc1ccncc1NC(=O)Cc1ccc(F)cc1
33 | 0.635 | ≤ 4.74 | 44.2 | 34.9 (≈ 134 µM) |  |  | CCc1ncnc(N(C)Cc2ccc(N)nc2)c1F
34 | 0.737 | ≤ 4.74 | 29.4 | 25.4 (≈ 90.8 µM) |  |  | O=C(O)CNc1nc(-c2ccccc2)nc2ccccc12
35 | 10.7 | 68.6 | 308 |  |  |  | COc1cccc(CC(=O)N2CCOC(c3cc(Nc4nnc(C)s4)cc(C)n3)C2)c1 (stereo not drawn)
36 | 0.438 | 55 | 344 | 1.02 (≈ 3.92 µM) |  |  | CON(C)C(=O)c1cc2ccc(C(C)(C)C)cc2[nH]1
37 | 9.46 | 8.98 | 41.2 |  |  |  | CC(=O)NC[C@H]1C[C@]2(C)[C@@H](CCCC[C@]2(C)O)N1CC1(O)CCOCC1
38 | 0.664 | 6.72 | 34.6 | 37.8 (≈ 163 µM) |  |  | Cc1ccc(C(=O)Nc2ncccc2C)s1
39 | 1.7 | 32.5 | 741 |  |  |  | COc1cccc(C)c1C(=O)N[C@H](CO)CCSC
40 | 83.8 | 92.1 | 445 |  |  |  | Cc1nn(C(C)C)c(C)c1S(=O)(=O)NCC1CCN(C(=O)C2CC2)CC1
41 |  | 25.7 | 230 |  |  |  | Cc1nc(-c2ccccc2)c(C(=O)Nc2cc(Cl)cc(Cl)c2)s1
42 | 0.593 | 39.3 | 342 | 24.5 (≈ 94.5 µM) |  |  | Cc1nnsc1CN(C)c1ccc2cc[nH]c2n1
43 | 46 | 14.4 | 24 | 20 (≈ 39.5 µM) |  |  | COCCNc1cc(NC(=O)N2CCCc3cc(CN4CCN(C)CC4=O)c(C=O)nc32)ncc1C#N
44 | 22.3 | 127 | 6150 |  |  |  | Cc1ccc(F)cc1S(=O)(=O)Nc1ccc(C(=O)N2CCCC2)cc1
45 | 6.73 | 821 | 1770 | 47 (≈ 106 µM) |  |  | COc1cccc(N(C)CCC(=O)N2CCC(c3ccc(-c4ccc(N)nc4)cn3)CC2)c1
46 | 8.26 | 789 | 3110 |  |  |  | CC(C)c1nc(S(=O)(=O)N2CC3(CC3)c3ccccc32)c[nH]1
47 | 7.19 | ≤ 4.74 | 146 |  |  |  | CC(C)(C)c1[nH]cnc1/C=c1\[nH]c(=O)/c(=C/c2ccccc2)[nH]c1=O
48 |  | 105 | 1400 | 42.8 (≈ 129 µM) |  |  | O=C1CCC(=O)N1Cc1nc(C23CC4CC(CC(C4)C2)C3)cs1
49 | 18.1 | ≤ 4.74 | 27.9 |  |  |  | O=C(CCc1cn[nH]c1)NCCCn1cc(Cl)cn1
50 | 2.78 | ≤ 4.74 | 19.9 |  |  |  | Cn1cc(CN2CCc3nc4ccccc4c(=O)n3CC2)cn1
51 | 2.42 | 5.18 | 28.8 | 9.6 (≈ 26.9 µM) |  |  | O=C1Oc2nc3cc4c(cc3cc2CN1CCN1CCOCC1)OCO4
52 | 61.5 | 21 | 73.6 |  |  |  | CO[C@H]1/C=C\C=C(/C)C(=O)NC2=CC(=O)C(NCCN(C)C)=C(C[C@@H](C)C[C@@H](OC)[C@@H](O)[C@@H](C)/C=C(\C)[C@H]1OC(N)=O)C2=O
53 | 23.6 | ≤ 4.74 | 29.5 |  |  |  | CCCn1cnnc1CN(C)Cc1ccc(C(F)(F)F)nc1
54 |  | 42.1 | 5410 |  |  |  | O=C(c1nccc2ccccc12)N1CCC(COc2ccccn2)CC1
55 |  |  |  | 0.19 (≈ 0.719 µM) |  |  | N#Cc1c(N)nc(-c2ccccc2)nc1C(F)(F)F
56 | 0.539 | 938 | 2210 | 23.5 (≈ 80 µM) |  |  | COc1cccc(CNc2ncc(-c3ccccc3)n2C)c1
57 | 3.38 | 59.6 | 247 |  | 0.144 | 0.088 | CC1(C)CC(=O)C2=C(C1)NC(=O)CC2c1ccc(Br)cc1 (stereo not drawn)
